Data as given in paper PMC10525570, “Antiviral Activity of Anthranilamide Peptidomimetics against Herpes Simplex Virus 1 and a Coronavirus” (Antibiotics, 2023).
“Also recorded” adds a separate entry of the source. Where two headings read alike, the source gives them in different places.

Columns and labels:
MHV-1 [1] = assay: Virus pre-treatment (direct virus inactivation) plaque assay, MHV-1; assay type: cell-based, Murine hepatitis virus 1; conditions: for Plaque formation, MHV-1: quadruplicate
Protocol: (§1) The peptidomimetics were evaluated for their antiviral activity using three different assays: virus pre-treatment, cell pre-treatment, and post-treatment assays, with the main distinction being the timing of the compound addition. Cells were seeded in 24-well plates at a density of 2.5 × 10^5 cells/well and incubated for 48 h at 37 °C. In all assays, the compounds were added to DMEM medium in the absence of fetal bovine serum (FBS). All experiments were performed in duplicate with two independent replicates. The inhibitory effect on viral infectivity was determined by comparing the number of plaques in wells treated with the test compounds (peptidomimetics) to the plaques observed in the control wells (cells infected with the virus without test compounds).
(§2) Virus pre-treatment assay: In this assay, the test compounds were added to the virus (1 × 10^3 PFU/mL) and incubated for 3 h at 37 °C. After incubation, each mixture (virus/peptide) was diluted in DMEM medium containing 10% FBS to neutralize the peptides or mimics. The dilutions were then added to the cell monolayers for 1 h, followed by the addition of an agar overlay containing 1% agar. The cells were further incubated for 72 h, after which they were fixed, stained, and the number of plaques was counted.

HSV-1 [2] = assay: Virus pre-treatment (direct virus inactivation) plaque assay, HSV-1; assay type: cell-based, herpes simplex virus 1
Protocol: as §1, §2

[3] = MTT cytotoxicity assay, Vero cells; assay type: cell-based; conditions: African green monkey, read-out: HSV-1 (Vero Cells) CC50
Protocol: (§3) The MTT assay was used to assess the cytotoxicity of compounds against the viral host (A9 and Vero) cells. This assay relies on the reduction of the yellow MTT compound to a dark blue formazan product by viable and metabolically active cells. Viral host cells were cultured in 96-well plates and incubated at 37 °C in a 5% CO2 atmosphere, treated with various concentrations of the test compounds together with further incubation for 24 h. After incubation, 100 μL of a 5 mg/mL MTT solution was added to each well and incubated for 2–4 h at 37 °C. The supernatant was then discarded, and 100 μL of 100% DMSO was added to dissolve the formazan salts with vigorous agitation for 10 min at room temperature. The absorbance at 540 nm was measured using a spectrophotometer. Cytotoxicity was determined by comparing the absorbance values in the test and control wells expressed as a percentage. A total of 100 μL DMSO was used for negative control (ctr−), while 100 μL of culture medium represented the positive control (ctr+). All experiments were repeated three times, and the mean values with standard deviations are reported. Nonlinear regression analysis was performed using GraphPad Prism software to determine the CC50 (concentration at which 50% of cells are killed).

MHV-1 [4] = assay: Cell pre-treatment plaque assay, MHV-1 on A9 cells; assay type: cell-based, Murine hepatitis virus 1; conditions: A9 cells preincubated 24 h with 15.625, 7.5, 3.75 µM before infection
Protocol: (§4) In order to explore additional potential mechanisms, the ability of compounds 11 and 14 to reduce the ability of the two viruses to bind to their respective mammalian host cells was examined. Three concentrations (15.625 µM, 7.5 µM, and 3.75 µM) of compounds 11 and 14, all below their cytotoxic thresholds, were allowed to interact with A9 and Vero cells for 24-h before virus infection. The impact of these interactions was assessed using a plaque assay to determine inhibitory effects.
as §1, with “All experiments were performed in duplicate with two independent replicates.” left out
(§5) Cell pre-treatment assay: The cells were treated with the test compounds and incubated for 24 h at 37 °C. […] The cells were then fixed, stained, and the number of plaques was determined.

HSV-1 [5] = assay: Cell pre-treatment plaque assay, HSV-1 on Vero cells; assay type: cell-based, herpes simplex virus 1; conditions: Vero cells preincubated 24 h with 15.625, 7.5, 3.75 µM before infection
Protocol: as §4
as §1, with “All experiments were performed in duplicate with two independent replicates.” left out
as §5

MHV-1 [6] = assay: Post-viral infection plaque assay, MHV-1 on A9 cells; assay type: cell-based, Murine hepatitis virus 1; conditions: compound added 3 h post-infection, 15.625, 7.5, 3.75 µM
Protocol: (§6) In order to determine if compounds 11 and 14 were able to inhibit aspects of viral infection after the initial binding stage to host mammalian cells, the same concentrations of the compounds were administered to the cells after a 3-h interval post-infection.
as §1
(§7) Post-viral infection assay: The cells were first incubated with viruses (1 × 10^3 PFU/mL) for 3 h at 37 °C to ensure complete cellular entry. Following that, the test compounds were added and incubated for 24 h at 37 °C. […] The cells were then fixed, stained, and the number of plaques was determined.

HSV-1 [7] = assay: Post-viral infection plaque assay, HSV-1 on Vero cells; assay type: cell-based, herpes simplex virus 1; conditions: compound added 3 h post-infection, 15.625, 7.5, 3.75 µM
Protocol: as §6, §1, §7

[8] = MTT cytotoxicity assay, A9 cells; assay type: cell-based; conditions: mouse, read-out: MHV-1 (A9 Cells) CC50
Protocol: as §3

MHV-1 [9] = assay: Transmission electron microscopy of treated MHV-1; set-up: species or system Murine hepatitis virus 1; conditions: virus treated at 37 °C for 2 h
Protocol: (§8) The viruses were treated with compound 11 for MHV-1 and 14 for HSV-1, both at 37 °C for 2 h. Subsequently, 10 µL of the treated mixture was placed on a glow-discharged carbon-coated 200 mesh copper grid and allowed to evaporate for 5 min. The sample was then stained with 1% phosphotungstic acid (pH 6.5) for 30 s to improve the contrast. After air-drying, the grids were examined using an FEI Tecnai G2 20 TEM machine.

HSV-1 [10] = assay: Transmission electron microscopy of treated HSV-1; set-up: species or system herpes simplex virus 1; conditions: virus treated at 37 °C for 2 h
Protocol: as §8

[11] = Murine coronavirus, virus pre-treatment 3 h at 37 °C, plaque assay, read-out: MHV-1 IC50
[12] = Human alphaherpesvirus 1, virus pre-treatment 3 h at 37 °C, plaque assay, read-out: HSV-1 IC50
[13] = Murine coronavirus, Table 2, A9 cells, read-out: MHV-1 (A9 Cells) IC50
[14] = Human alphaherpesvirus 1, Table 2, Vero cells, read-out: HSV-1 (Vero Cells) IC50

| Structure (SMILES) | IC50 (MHV-1 [1]; [11]) [µM] | IC50 (HSV-1 [2]; [12]) [µM] | IC50 (MHV-1 [1]; [13]) [µM] | IC50 (HSV-1 [2]; [14]) [µM] | also measured |
| --- | --- | --- | --- | --- | --- |
| NCCNC(=O)C(Cc1c[nH]c2ccccc12)NC(=O)c1ccccc1NC(=O)c1ccc2ccccc2c1 (stereo not shown) [Compound 1] | > 62.5 | > 62.5 |  |  |  |
| NCCNC(=O)C(Cc1c[nH]c2ccccc12)NC(=O)c1cc(Br)ccc1NC(=O)c1ccc2ccccc2c1 (stereo not shown) [Compound 2] | > 62.5 | > 62.5 |  |  |  |
| NCCNC(=O)C(Cc1c[nH]c2ccccc12)NC(=O)c1cc(F)ccc1NC(=O)c1ccc2ccccc2c1 (stereo not shown) [Compound 3] | > 62.5 | > 62.5 |  |  |  |
| NCCNC(=O)C(Cc1c[nH]c2ccccc12)NC(=O)c1cc(Cl)ccc1NC(=O)c1ccc2ccccc2c1 (stereo not shown) [Compound 4] | > 62.5 | > 62.5 |  |  |  |
| COc1ccc(NC(=O)c2ccc3ccccc3c2)c(C(=O)NC(Cc2c[nH]c3ccccc23)C(=O)NCCN)c1 (stereo not shown) [Compound 5] | > 62.5 | > 62.5 |  |  |  |
| N=C(N)NCCNC(=O)C(Cc1c[nH]c2ccccc12)NC(=O)c1ccccc1NC(=O)c1ccc2ccccc2c1 (stereo not shown) [Compound 6] | > 62.5 | > 62.5 |  |  |  |
| N=C(N)NCCNC(=O)C(Cc1c[nH]c2ccccc12)NC(=O)c1cc(Br)ccc1NC(=O)c1ccc2ccccc2c1 (stereo not shown) [Compound 7] | > 62.5 | 32.7 | > 62.5 | 32.8 | CC50 at 24 h [3]: 127 µM |
| N=C(N)NCCNC(=O)C(Cc1c[nH]c2ccccc12)NC(=O)c1cc(F)ccc1NC(=O)c1ccc2ccccc2c1 (stereo not shown) [Compound 8] | > 62.5 | > 62.5 |  |  |  |
| N=C(N)NCCNC(=O)C(Cc1c[nH]c2ccccc12)NC(=O)c1cc(Cl)ccc1NC(=O)c1ccc2ccccc2c1 (stereo not shown) [Compound 9] | > 62.5 | 14.8 | > 62.5 | 14.9 | CC50 at 24 h [3]: 45 µM |
| COc1ccc(NC(=O)c2ccc3ccccc3c2)c(C(=O)NC(Cc2c[nH]c3ccccc23)C(=O)NCCNC(=N)N)c1 (stereo not shown) [Compound 10] | > 62.5 | > 62.5 |  |  |  |
| NCCNC(=O)C(Cc1c[nH]c2ccccc12)NC(=O)c1cc(-c2ccc3ccccc3c2)ccc1N (stereo not shown) [Compound 11] |  |  | 2.18 | 34.9 | Plaque formation, MHV-1 (MHV-1 [1]; MHV-1 treated with 31.25 µM): complete inhibition of plaque formation; Plaque formation, MHV-1 (MHV-1 [1]; MHV-1 treated with 62.5 µM): complete inhibition of plaque formation; IC50 (MHV-1 [1]; Murine coronavirus, read-out: MHV-1 IC50): 2.38 µM; inhibition at 2.18 µM (MHV-1 [1]; Murine coronavirus, at 2.18 µM): > 50%; IC50 (HSV-1 [2]; Human alphaherpesvirus 1, read-out: HSV-1 IC50): 34.9 µM; Inhibition of MHV-1 infection, cell pre-treatment (MHV-1 [4]): none of the compounds could inhibit virus infection; also recorded: Neither of the compounds was able to affect viral replication; Inhibition of HSV-1 infection, cell pre-treatment (HSV-1 [5]): none of the compounds could inhibit virus infection; also recorded: Neither of the compounds was able to affect viral replication; Antiviral activity against MHV-1, post-infection treatment (MHV-1 [6]): no noticeable antiviral activity; also recorded: Neither of the compounds was able to affect viral replication; Antiviral activity against HSV-1, post-infection treatment (HSV-1 [7]): no noticeable antiviral activity; also recorded: Neither of the compounds was able to affect viral replication; CC50 at 24 h [8]: 20.5 µM; CC50 at 24 h [3]: 16.7 µM; Effect on MHV-1 viral envelope (TEM) (MHV-1 [9]): disrupted viral envelope; also recorded: complete disruption of the viral envelope |
| NCCNC(=O)C(Cc1c[nH]c2ccccc12)NC(=O)c1cc(-c2ccc(-c3ccccc3)cc2)ccc1N (stereo not shown) [Compound 12] | > 62.5 | > 62.5 |  |  |  |
| COc1ncc(-c2ccc(N)c(C(=O)NC(Cc3c[nH]c4ccccc34)C(=O)NCCN)c2)c(OC)n1 (stereo not shown) [Compound 13] | > 62.5 | > 62.5 |  |  |  |
| NCCNC(=O)C(Cc1c[nH]c2ccccc12)NC(=O)c1cc(-c2ccccc2-c2ccccc2)ccc1N (stereo not shown) [Compound 14] | 6.3 | 13 | 6.3 | 13 | Plaque formation, HSV-1 (HSV-1 [2]; HSV-1 treated with 31.25 µM): complete inhibition of plaque formation; Plaque formation, HSV-1 (HSV-1 [2]; HSV-1 treated with 62.5 µM, four replicates): complete inhibition of plaque formation; inhibition at 13 µM (HSV-1 [2]; Human alphaherpesvirus 1, at 13 µM): > 50%; Inhibition of MHV-1 infection, cell pre-treatment (MHV-1 [4]): none of the compounds could inhibit virus infection; also recorded: Neither of the compounds was able to affect viral replication; Inhibition of HSV-1 infection, cell pre-treatment (HSV-1 [5]): none of the compounds could inhibit virus infection; also recorded: Neither of the compounds was able to affect viral replication; Antiviral activity against MHV-1, post-infection treatment (MHV-1 [6]): no noticeable antiviral activity; also recorded: Neither of the compounds was able to affect viral replication; Antiviral activity against HSV-1, post-infection treatment (HSV-1 [7]): no noticeable antiviral activity; also recorded: Neither of the compounds was able to affect viral replication; CC50 at 24 h [8]: 10.2 µM; CC50 at 24 h [3]: 15.2 µM; Effect on HSV-1 viral envelope (TEM) (HSV-1 [10]): partial disruption of the HSV-1 envelope; also recorded: partial destruction of the HSV-1 envelope |
| NCCCCC(N)C(=O)NCCNC(=O)C(Cc1c[nH]c2ccccc12)NC(=O)c1cc(Br)ccc1NC(=O)c1ccc2ccccc2c1 (stereo not shown) [Compound 15] | 11.1 | > 62.5 | 11.1 | > 62.5 | CC50 at 24 h [8]: 62.7 µM |
| NCCCCC(N)C(=O)NCCNC(=O)C(Cc1c[nH]c2ccccc12)NC(=O)c1cc(Br)ccc1NC(=O)c1ccc(-c2ccccc2)cc1 (stereo not shown) [Compound 16] | 22.5 | > 62.5 | 22.6 | > 62.5 | CC50 at 24 h [8]: 81.6 µM |
| NCCCCC(N)C(=O)NCCNC(=O)C(Cc1c[nH]c2ccccc12)NC(=O)c1cc(Br)ccc1NC(=O)c1cccc(-c2ccccc2)c1 (stereo not shown) [Compound 17] | 11.8 | > 62.5 | 11.8 | > 62.5 | CC50 at 24 h [8]: 114 µM |
